The assay deals with glycogen-phosphorylase (PYGL) gene expression. The experiment in a line: PYGL gene expression by qRT-PCR in Human Follicle Dermal Papilla Cells. It counts as cell-based. The settings on record: 6 μg/mL; serum-starved HFDPC, 24 h treatment; compared with positive control (starved cells), p<0.005. As to the method: The PromoCell® Human Follicle Dermal Papilla Cells (HFDPC) cell line was used to test the inhibitory activity on PYGL of maslinic acid and a Swertia chirata extract (dry extract on maltodextrins) alone or as a combination.
HFDPCs (DP; PromoCell GmbH, Heidelberg, Germany, batch 325Z017.1 and 322Z030.1) were grown in base culture medium (Follicle Dermal Papilla Cell Growth Medium) (PromoCell GmbH) supplemented with 4 μL/mL of bovine pituitary gland extract (Bovine Pituitary Extract), 0.04 mL/mL fetal serum, 1 ng/ml recombinant human fibroblast growth factor, 5 μg/mL recombinant human insulin (PromoCell). Cells were cultured with […] primocin (Invivogen, Toulouse, France, #ant-pm-2) in a humidified incubator with 5% CO2 at 37° C.
POSITIVE CONTROL: Cells treated in Follicle Dermal Papilla Cell Growth medium without serum (starved) under the same culture conditions.
NEGATIVE CONTROL: Untreated cells in Follicle Dermal Papilla Cell Growth medium under the same culture conditions.
PYGL gene expression was studied by RT-PCR.
When cells (HFDPC) reached about 80% confluence, they were detached with trypsin/EDTA and seeded at a density of 1×10^6 cells/mL into 12-well plates and incubated at 37° C., 5% CO2 (24 h). […]

We go through 1 compound from patent US20260224470A1, “Composition For Improving The Aesthetic Appearance Of Hair And Skin Appendages” (priority 2023, published 2026).

The structures appear in SMILES notation.

`CC1(C)CC[C@]2(C(=O)O)CC[C@]3(C)C(=CC[C@@H]4[C@@]5(C)C[C@@H](O)[C@H](O)C(C)(C)[C@@H]5CC[C@]43C)[C@@H]2C1` [maslinic acid, (2α,3β)-2,3-dihydroxyolean-12-en-28-oic acid]: the “inhibition of PYGL gene expression” value was “significantly inhibit (p<0.005)”.
